Assays:
[1] = cited from earlier work
rabbit eye = assay: Blink response to surface stimulation in rabbits: onset and duration of anesthesia; assay type: in vivo, New Zealand White Rabbits; conditions: as shown in the working examples
Procedure: This rabbit study was performed in order to evaluate various formulations. General guidelines for these studies are attached here as Attachment 1. This guideline defines the screening of six (6) formulations using two (2) different viscosity enhancing agents. The two agents selected were Carboxymethylcellulose (CMC) and Sodium Hyluronate (HA). The specifics of these formulations are described in Attachment 2.
A statistical analysis of the experimental results for both onset of action and the duration of anesthesia is provided below. The means were compiled and statistically compared to the controls in each individual formulation. The significance or non-significance is noted as (S=Significant P value <0.001, NS=Not Significant P Value >0.05). The duration results are summarized here in Table 1.
Six different formulations were tested and the onset and duration of action was evaluated.
The commercially available Tetracaine hydrochloride 0.5% Ophthalmic Solution was used as the control.
New Zealand White Rabbits were obtained from Harlan Sprague Dawley. They were housed in the animal facility at Mercer
Dosing was performed with the experimental formulation in one eye by dropping the formulation into the rabbit eye with the aid of a dropper and the standard marketed product was administered in the contra lateral eye as a control. Multiple experiments were run with the same group of rabbits. […]

CCCCNc1ccc(C(=O)OCCN(C)C)cc1 [tetracaine]
onset of anesthesia ([1]; background statement on tetracaine ophthalmic solution): ≤ 30 s | duration of anesthetic properties ([1]; background statement, cataract surgery): 15 to 20 min | duration of anesthesia after administration to the eye (rabbit eye): up to 55 minutes

Reference: US10821092B2, “Viscous topical ocular formulations” (Encompass Development, Inc., priority 2014, dated 2020)
